According to patent publication US8492582B2, “N-acyl anthranilic acid derivative or salt thereof” (Toyama Chemical Co., Ltd., priority 2009, dated 2013):
Structures can show the parent of a compound that is named as a salt. Where two headings read alike, the source gives them in different places.

Tests used:
SD-line male rats = assay: Repeated administration toxicity test in rat (oral administration, two weeks); format: in vivo; details: 1000 mg/kg, 5 rats per group, 80a and 1b as sodium salts
Protocol: As test compounds, the compounds of Examples 80a, 122a, 139a, 1b, 16b, and 19b were used. Note that the compounds of Examples 80a and 1b were used in the forms of sodium salts.
Each test compound was suspended in a 0.5% methylcellulose solution or distilled water to prepare a 100 mg/mL suspension. The suspension of the test compound was orally administered (10 mL/kg, test compound: 1000 mg/kg) to SD-line male rats (6-week-old, 5 rats for each group).

[1] = test system: type I collagen α1 chain mRNA in WI-38 cells; assay: Type I collagen α1 chain mRNA expression inhibition test; format: cell-based; details: Homo sapiens, read-out: Inhibition rate (%) at 10 μmol/L
Method in brief: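 Subconfluent WI-38 cells in DMEM with 0.4% FCS and 50 μg/mL ascorbic acid were given compound 1 h before TGF-β1 (1 ng/mL final). After 24 h, COL1A1 mRNA was quantified by SYBR real-time RT-PCR, normalised to GAPDH, and expressed relative to compound-free control (100%).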

[2] = test system: bleomycin-induced lung fibrosis (lung collagen amount); assay: Mouse bleomycin-induced lung fibrosis; format: in vivo, mice C57BL/6N; details: po, 672 h, read-out: lung collagen amount low compared with that of the control group
Protocol: The test was conducted using 8- to 10.5-week-old male mice C57BL/6N (Charles River Laboratories Japan, Inc.). Bleomycin (Nippon Kayaku Co., Ltd.) was dissolved in physiological saline in a concentration of 1.0 or 1.5 mg/mL, and 2 μL/g thereof was intranasally administered to each mouse to evoke lung fibrosis. A test compound was dissolved or suspended in a 10% aqueous solution of polyoxyethylene castor oil (trade name: Cremophor EL) or in water and orally administered in an amount of 10 mg/kg twice a day from the 14th to the 28th day from the evocation. In a control group, a 10% aqueous solution of polyoxyethylene castor oil or water was administered in the same manner. The lung was extracted from each mouse on the 28th day from the evocation, and collagen was quantitatively measured. The extracted lung was homogenized in a 0.5 mol/L aqueous solution of acetic acid containing a protease inhibitor cocktail (Complete, EDTA-free, Roche Diagnostics) in an amount of one tablet/50 mL, and water-soluble collagen was extracted in the presence of 10 mg/mL pepsin (Sigma) overnight. The amount of collagen was measured using a kit (Sircol Soluble Collagen assay kit, Biocolor).
The inhibition rate was determined by the following expression: Inhibition rate (%)=[1−(lung collagen amount in test compound administration group)/(lung collagen amount in control group)]×100

[3] = side effect, clinical, Non Patent Document 3; cited from earlier work
CYP2C9 = target: T1, CYP2C9 (Homo sapiens, UniProt P11712); assay: Hepatic drug-metabolizing enzyme inhibitory activity in humans (CYP2C9); format: in vitro ADME; details: pooled human liver microsome, tolbutamide 200 μmol/L, 37° C., 30 minutes; 80a as free base; read-out: IC50 (CYP2C9, tolbutamide metabolite)
T1 construct: Pooled human liver microsome was used, and tolbutamide was used as a substrate; from tissue; host or cells: pooled human liver microsomes
Protocol: As test compounds, the compounds of Examples 80a, 83a, 108a, 117a, 123a, 128a, 139a, 142a, and 143a were used. Note that the compound of Example 80a was used in the form of free base.
Pooled human liver microsome was used, and tolbutamide was used as a substrate. The reaction was performed in a phosphate buffer (100 mmol/L, pH 7.4), and the final concentrations in the reaction system were adjusted to 0.5 mg/mL of human liver microsome protein, 200 μmol/L of the substrate, 1.55 mmol/L of oxidized nicotinamide adenine dinucleotide phosphate (NADP+), 3.3 mmol/L of glucose-6-phosphate, 3.3 mmol/L of magnesium chloride, and 0.4 Units/mL of glucose-6-phosphate dehydrogenase (G6PDH). The final concentration of each compound in the reaction solution was adjusted to 0.08 to 50 μg/mL. These reaction solutions were each subjected to reaction at 37° C. for 30 minutes. The reaction was terminated with an equal amount of acetonitrile. After centrifugation, the concentration of a tolbutamide metabolite in the supernatant was quantitatively measured by LC-MS/MS. The inhibitory activity was determined as IC50. As a positive control, sulfaphenazole was used.

[4] = 10 μmol/L test compound, WI-38 cells, TGF-β1 1 ng/mL, 24 hours, Table 4b
[5] = orally 10 mg/kg twice a day, 14th to 28th day, lung on 28th day, 23a, 1b, 7c as sodium salts, 122a, 143a as hydrochloric acid salts

T1 sequence (P11712 whole entry): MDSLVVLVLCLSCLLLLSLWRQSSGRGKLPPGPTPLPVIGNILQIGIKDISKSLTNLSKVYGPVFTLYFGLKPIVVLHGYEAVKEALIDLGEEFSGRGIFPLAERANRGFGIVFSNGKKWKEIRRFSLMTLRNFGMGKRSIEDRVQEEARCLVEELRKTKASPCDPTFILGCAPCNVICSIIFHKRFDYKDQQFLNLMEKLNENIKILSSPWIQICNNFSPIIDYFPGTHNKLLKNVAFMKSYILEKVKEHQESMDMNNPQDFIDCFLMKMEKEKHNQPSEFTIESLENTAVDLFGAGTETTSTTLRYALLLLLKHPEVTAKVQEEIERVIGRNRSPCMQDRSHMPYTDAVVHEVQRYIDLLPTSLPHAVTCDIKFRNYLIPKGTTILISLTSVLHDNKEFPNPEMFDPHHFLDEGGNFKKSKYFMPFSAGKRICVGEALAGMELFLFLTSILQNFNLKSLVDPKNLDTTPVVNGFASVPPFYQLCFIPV

| Compound | survival on the 14th day from the administration (SD-line male rats) | inhibition at 10 µM [1, 4] [%] | inhibition in vivo at 10 mg/kg [2, 5] [%] | photosensitivity in subjects [3] [%] | inhibition at 10 µM ([1]; WI-38, 24 h) [%] | IC50 (CYP2C9) [µM] | inhibition at 10 µM ([1]; 10 μmol/L test compound, WI-38 cells, TGF-β1 1 ng/mL, 24 hours, Table 4a) [%] | inhibition in vivo at 10 mg/kg [2] [%] |
| --- | --- | --- | --- | --- | --- | --- | --- | --- |
| O=C(Nc1cc(-c2ccco2)ccc1C(=O)[O-])c1cncc(-c2ccccc2)c1.[Na+] [19b, sodium 4-(furan-2-yl)-2-(5-phenylpyridine-3-carboxamido)benzoate] | all rats survived | 90 | ≥ 30 |  |  |  |  |  |
| Cc1ccc(=O)n(-c2ccccc2)c1 [pirfenidone, Pirfenidone] |  |  |  | 87.9 |  |  |  |  |
| CCNc1ccccc1-c1ccc(C(=O)[O-])c(NC(=O)c2cncc(-c3ccccc3)c2)c1.[Na+] [16b, sodium 4-(2-(ethylamino)phenyl)-2-(5-phenylpyridine-3-carboxamido)benzoate] | all rats survived | 84 | ≥ 30 |  |  |  |  |  |
| O=C(Nc1cc(-c2ccccc2)ccc1C(=O)O)c1cc(OCCN2CCOCC2)ccc1O [Example 139a, 2-(2-hydroxy-5-(2-(morpholin-4-yl)ethoxy)benzamido)-4-phenylbenzoic acid hydrochloride] | all rats survived |  |  |  | 85 | > 108 |  |  |
| CN1CCN(Cc2ccc(O)c(C(=O)Nc3cc(-c4ccccc4)ccc3C(=O)O)c2)CC1 [Example 122a, 2-(2-hydroxy-5-((4-methylpiperazin-1-yl)methyl)benzamido)-4-phenylbenzoic acid dimethanesulfonate] | all rats survived |  | ≥ 30 |  |  |  | 88 |  |
| O=C(Nc1cc(-c2ccccc2)ccc1C(=O)O)c1cc(N2CCCCC2)ccc1O [Example 80a, 2-(2-hydroxy-5-(piperidin-1-yl)benzamido)-4-phenylbenzoic acid hydrochloride] | all rats survived |  |  |  | 95 | > 120 |  | ≥ 30 |
| O=C(Nc1cc(-c2ccccc2)ccc1C(=O)O)c1cncc(-c2ccccc2)c1 [1b, 4-phenyl-2-(5-phenylpyridine-3-carboxamido)benzoic acid] | all rats survived | 72 | ≥ 30 |  |  |  |  |  |
